Series [1] addresses T1, GPR39 (Homo sapiens, UniProt O43194).
T1 sequence (O43194 1-453): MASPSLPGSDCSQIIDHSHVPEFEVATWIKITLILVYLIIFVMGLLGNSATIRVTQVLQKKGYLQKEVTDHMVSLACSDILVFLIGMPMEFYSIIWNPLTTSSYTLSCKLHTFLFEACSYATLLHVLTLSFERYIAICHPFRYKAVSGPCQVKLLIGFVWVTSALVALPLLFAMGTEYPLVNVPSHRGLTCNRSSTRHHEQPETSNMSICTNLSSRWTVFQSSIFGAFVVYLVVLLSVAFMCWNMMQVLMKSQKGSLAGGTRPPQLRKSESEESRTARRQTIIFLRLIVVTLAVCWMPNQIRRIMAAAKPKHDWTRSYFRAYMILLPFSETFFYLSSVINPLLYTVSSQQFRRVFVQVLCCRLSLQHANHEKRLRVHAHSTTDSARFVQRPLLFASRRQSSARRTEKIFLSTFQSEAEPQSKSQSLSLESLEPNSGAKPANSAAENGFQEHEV
Method: (§1) Specifically, the fibroblast cell line CV-1 (1×10^5 cells/ml, Korea Cell Line Bank) was cultured in a 96 well cell culture plate for 24 hours, and then treated with GPR39 inserted into adenovirus and SRE (serum response element) luciferase at 50 MOI (multiplicity of infection) and 25 MOI virus for 3 hours, respectively, and then cultured for 24 hours.

Series [2] deals with T1, GPR39. The series is described as follows: luciferase assay system (SRE luciferase reporter gene) for GPR39 in CV-1 cells. Conditions: for EC50: EC50, CV-1 cells, GPR39 and SRE luciferase adenovirus, treated 6 hours, luminometer; for activity level for GPR39 (in words): comment on Table 3. A general note: Reporter assays use an easily measured gene product as a stand-in for the process of interest.
Method: as §1

A word on the EC50: it is the concentration giving half of the maximal effect. Low readings indicate higher potency in that assay, high ones lower potency in that assay.

Square brackets hold non-standard residues; d marks the D form. Peptide text beside a SMILES is read from it. * marks the point of attachment. His(Trt) = N[C@@H](Cc1cn(C(c2ccccc2)(c2ccccc2)c2ccccc2)cn1)C(=O)O; dHis(Trt) = N[C@H](Cc1cn(C(c2ccccc2)(c2ccccc2)c2ccccc2)cn1)C(=O)O; His(τ-CHPh2) = N[C@@H](Cc1cn(C(c2ccccc2)c2ccccc2)cn1)C(=O)O; Biotin = O=C1N[C@H]2[C@H](CS[C@H]2CCCCC(=O)*)N1; dPhe(4-CF3) = N[C@H](Cc1ccc(C(F)(F)F)cc1)C(=O)O; sY = N[C@@H](Cc1ccc(OS(=O)(=O)O)cc1)C(=O)O; Bip = N[C@@H](Cc1ccc(-c2ccccc2)cc1)C(=O)O; dPhe(4-Me) = Cc1ccc(C[C@@H](N)C(=O)O)cc1; Decanoyl = CCCCCCCCCC(=O)*; Octanoyl = CCCCCCCC(=O)*; Orn = NCCC[C@H](N)C(=O)O; Boc = CC(C)(C)OC(=O)*

As for `CCCCCCCC(=O)NCCCC[C@H](NC(=O)[C@H](N)Cc1cn(C(c2ccccc2)(c2ccccc2)c2ccccc2)cn1)C(=O)N[C@H](Cc1ccc(C)cc1)C(=O)N[C@@H](Cc1ccc(O)cc1)C(=O)O` [HKFY-31, ((R)-2-((S)-2-((R)-2-amino-3-(1-trityl-1H-imidazol-4-yl)propanamido)-6-octanamidohexanamido)-3-(p-tolyl)propanoyl)-L-tyrosine] (H-[dHis(Trt)]K(Octanoyl)[dPhe(4-Me)]Y-OH), the “ECmax (-fold induction over basal)” value at GPR39 [1] is given as 20.9 ± 2.51 -fold induction over basal. In addition, the EC50 at GPR39 [2] came out at 20 ± 3 nM.

For the compound `CCCCCCCC(=O)NCCCC[C@H](NC(=O)[C@@H](N)Cc1cn(C(c2ccccc2)c2ccc(OC)cc2)cn1)C(=O)N[C@H](Cc1ccc(C)cc1)C(=O)N[C@@H](Cc1ccc(O)cc1)C(=O)O` (stereo partly drawn) [HKFY-64, ((2R)-2-((2S)-2-((2S)-2-amino-3-(1-((4-methoxyphenyl)(phenyl)methyl)-1H-imidazol-4-yl)propanamido)-6-octanamidohexanamido)-3-(p-tolyl)propanoyl)-L-tyrosine], the “ECmax (-fold induction over basal)” value on GPR39 [1] was 16 ± 1.5 -fold induction over basal. Also, at GPR39 [2], it took 7 ± 1 nM to reach a half-maximal effect (EC50) and the “activity level for GPR39 (in words)” value is given as “higher activity level than other HJKFY derivatives”.

Regarding `CCCCCCCC(=O)NCCCC[C@H](NC(=O)[C@H](Cc1cn(C(c2ccccc2)(c2ccccc2)c2ccccc2)cn1)NC(=O)[C@H](CO)NC(=O)CN)C(=O)N[C@@H](Cc1ccccc1)C(=O)N[C@@H](Cc1ccc(O)cc1)C(=O)O` [HKFY-37, N2-(Na-glycyl-L-seryl-Nt-trityl-L-histidyl)-N6-octanoyl-L-lysyl-L-phenylalanyl-L-tyrosine] (H-GS[His(Trt)]K(Octanoyl)FY-OH), the “ECmax (-fold induction over basal)” value at GPR39 [1] was 16 ± 1.7 -fold induction over basal. The same compound registered an EC50 at GPR39 [2] of 1840 ± 200 nM.

On to `CCCCCCCC(=O)NCCCC[C@H](NC(=O)[C@@H](N)Cc1c[nH]c(-c2ccccc2)n1)C(=O)N[C@H](Cc1ccc(C)cc1)C(=O)N[C@@H](Cc1ccc(O)cc1)C(=O)O` [HKFY-57, ((R)-2-((S)-2-((S)-2-amino-3-(2-phenyl-1H-imidazol-4-yl)propanamido)-6-octanamidohexanamido)-3-(p-tolyl)propanoyl)-L-tyrosine], for which, on GPR39 [1], the “ECmax (-fold induction over basal)” value is reported as 8.5 ± 2.3 -fold induction over basal. Also, at GPR39 [2], it took 260 ± 10 nM to reach a half-maximal effect (EC50).

Take `CCCCCCCC(=O)NCCC[C@H](NC(=O)[C@@H](N)Cc1cn(C(c2ccccc2)c2ccccc2)cn1)C(=O)N[C@H](Cc1ccc(C)cc1)C(=O)N[C@@H](Cc1ccc(O)cc1)C(=O)O` [HKFY-71, ((R)-2-((S)-2-((S)-2-amino-3-(1-benzhydryl-1H-imidazol-4-yl)propanamido)-5-octanamidopentanamido)-3-(p-tolyl)propanoyl)-L-tyrosine] (H-[His(τ-CHPh2)][Orn](Octanoyl)[dPhe(4-Me)]Y-OH): at GPR39 [1], the “ECmax (-fold induction over basal)” value is 16.4 ± 2.51 -fold induction over basal. At GPR39 [2], the EC50 was found to be 12 ± 3 nM.

In the case of `CCCCCCCCCC(=O)NCCCC[C@H](NC(=O)[C@@H](N)Cc1cn(C(c2ccccc2)(c2ccccc2)c2ccccc2)cn1)C(=O)N[C@@H](Cc1ccccc1)C(=O)N[C@@H](Cc1ccc(O)cc1)C(=O)O` [HKFY-24, N6-decanoyl-N2-(Nt-trityl-L-histidyl)-L-lysyl-L-phenylalanyl-L-tyrosine] (H-[His(Trt)]K(Decanoyl)FY-OH), the “ECmax (-fold induction over basal)” value on GPR39 [1] was 7.03 ± 0.57 -fold induction over basal. At GPR39 [2], a half-maximal effect (EC50) was put at 240 ± 70 nM.

Regarding `CCCCCCCC(=O)NCCCC[C@H](NC(=O)[C@@H](N)Cc1cn(C(c2ccccc2)c2ccc(O)cc2)cn1)C(=O)N[C@H](Cc1ccc(C)cc1)C(=O)N[C@@H](Cc1ccc(O)cc1)C(=O)O` (stereo partly drawn) [HKFY-65, ((2R)-2-((2S)-2-((2S)-2-amino-3-(1-((4-hydroxyphenyl)(phenyl)methyl)-1H-imidazol-4-yl)propanamido)-6-octanamidohexanamido)-3-(p-tolyl)propanoyl)-L-tyrosine], the “ECmax (-fold induction over basal)” value on GPR39 [1] is 18.3 ± 2.2 -fold induction over basal. In addition, the “activity level for GPR39 (in words)” value on GPR39 [2] is given as “higher activity level than other HJKFY derivatives”.

Take `CCCCCCCC(=O)NCCCC[C@H](NC(=O)[C@@H](N)Cc1cn(-c2ccc(C(C)(C)C)cc2)cn1)C(=O)N[C@H](Cc1ccc(C)cc1)C(=O)N[C@@H](Cc1ccc(O)cc1)C(=O)O` [HKFY-61, ((R)-2-((S)-2-((S)-2-amino-3-(1-(4-(tert-butyl)phenyl)-1H-imidazol-4-yl)propanamido)-6-octanamidohexanamido)-3-(p-tolyl)propanoyl)-L-tyrosine]: the “ECmax (-fold induction over basal)” value at GPR39 [1] is given as 9.88 ± 1.8 -fold induction over basal. It took 20 ± 3 nM to reach a half-maximal effect on GPR39 [2] (EC50).

As for `CCCCCCCC(=O)NCCCC[C@H](NC(=O)[C@H](Cc1cn(C(c2ccccc2)(c2ccccc2)c2ccccc2)cn1)NC(=O)CCCC[C@@H]1SC[C@@H]2NC(=O)N[C@@H]21)C(=O)N[C@@H](Cc1ccc(-c2ccccc2)cc1)C(=O)N[C@@H](Cc1ccc(O)cc1)C(=O)O` [HKFY-45, ((S)-3-([1,1′-biphenyl]-4-yl)-2-((S)-6-octanamido-2-((S)-2-(5-((3aS,4S,6aR)-2-oxohexahydro-1H-thieno[3,4-d]imidazol-4-yl)pentanamido)-3-(1-trityl-1H-imidazol-4-yl)propanamido)hexanamido)propanoyl)-L-tyrosine] (Biotin-[His(Trt)]K(Octanoyl)[Bip]Y-OH), the “ECmax (-fold induction over basal)” value on GPR39 [1] is reported as 21 ± 2.58 -fold induction over basal. The EC50 on GPR39 [2] amounted to 140 ± 50 nM.

With `CCCCCCCC(=O)NCCCC[C@H](NC(=O)[C@@H](N)Cc1cn(C(c2ccccc2)c2ccccc2)cn1)C(=O)N[C@H](Cc1ccc(C)cc1)C(=O)N[C@@H](Cc1ccc(OS(=O)(=O)O)cc1)C(=O)O` [HKFY-35, (S)-2-((R)-2-((S)-2-((S)-2-amino-3-(1-benzhydryl-1H-imidazol-4-yl)propanamido)-6-octanamidohexanamido)-3-(p-tolyl)propanamido)-3-(4-(sulfooxy)phenyl)propanoic acid] (H-[His(τ-CHPh2)]K(Octanoyl)[dPhe(4-Me)][sY]-OH), the “ECmax (-fold induction over basal)” value on GPR39 [1] is 18.9 ± 0.41 -fold induction over basal. On GPR39 [2], the EC50 worked out at 280 ± 70 nM.

Regarding `CCCCCCCC(=O)NCCCC[C@H](NC(=O)[C@@H](N)Cc1cn(C(c2ccccc2)c2ccccc2)cn1)C(=O)N[C@@H](Cc1ccccc1)C(=O)N[C@@H](Cc1ccc(O)cc1)C(=O)O` [HKFY-33, N2-(Nt-benzhydryl-L-histidyl)-N6-octanoyl-L-lysyl-L-phenylalanyl-L-tyrosine] (H-[His(τ-CHPh2)]K(Octanoyl)FY-OH), on GPR39 [1], the “ECmax (-fold induction over basal)” value was 20 ± 0.57 -fold induction over basal. The compound further showed an EC50 at GPR39 [2] of 150 ± 70 nM.

Turning to `CCCCCCCC(=O)NCCCC[C@H](NC(=O)[C@@H](N)Cc1cn(Cc2ccc(-c3ccccc3-c3nnn[nH]3)cc2)cn1)C(=O)N[C@H](Cc1ccc(C)cc1)C(=O)N[C@@H](Cc1ccc(O)cc1)C(=O)O` [HKFY-77, ((R)-2-((S)-2-((S)-3-(1-((2′-(1H-tetrazol-5-yl)-[1,1′-biphenyl]-4-yl)methyl)-1H-imidazol-4-yl)-2-aminopropanamido)-6-octanamidohexanamido)-3-(p-tolyl)propanoyl)-L-tyrosine], the “ECmax (-fold induction over basal)” value at GPR39 [1] was 11.6 ± 2.14 -fold induction over basal. At GPR39 [2], the response was half-maximal at 7 ± 2 nM (EC50).

As for `CCCCCCCC(=O)NCCCC[C@H](NC(=O)[C@@H](N)Cc1cn(C(c2ccccc2)(c2ccccc2)c2ccc(C)cc2)cn1)C(=O)N[C@@H](Cc1ccccc1)C(=O)N[C@@H](Cc1ccc(O)cc1)C(=O)O` [HKFY-5, N2-(Nt-(diphenyl(p-tolyl)methyl)-L-histidyl)-N6-octanoyl-L-lysyl-L-phenylalanyl-L-tyrosine], the “ECmax (-fold induction over basal)” value at GPR39 [1] is 16 ± 1.7 -fold induction over basal. On GPR39 [2], this compound yielded an EC50 of 1840 ± 200 nM.

On to `CCCCCCCC(=O)NCCCC[C@H](NC(=O)[C@@H](N)Cc1c[nH]c(-c2cccs2)n1)C(=O)N[C@H](Cc1ccc(C)cc1)C(=O)N[C@@H](Cc1ccc(O)cc1)C(=O)O` [HKFY-63, ((R)-2-((S)-2-((S)-2-amino-3-(2-(thiophen-2-yl)-1H-imidazol-4-yl)propanamido)-6-octanamidohexanamido)-3-(p-tolyl)propanoyl)-L-tyrosine], for which, at GPR39 [1], the “ECmax (-fold induction over basal)” value was 13.5 ± 1.8 -fold induction over basal. Moreover, at GPR39 [2], the “activity level for GPR39 (in words)” value is on record as “higher activity level than other HJKFY derivatives”.

Regarding `CCCCCCCC(=O)NCCCC[C@H](NC(=O)[C@@H](N)Cc1cn(C(c2ccccc2)(c2ccccc2)c2ccccc2)cn1)C(=O)N[C@H](Cc1ccc(C(F)(F)F)cc1)C(=O)N[C@@H](Cc1ccc(O)cc1)C(=O)O` [HKFY-76, ((R)-2-((S)-2-((S)-2-amino-3-(1-trityl-1H-imidazol-4-yl)propanamido)-6-octanamidohexanamido)-3-(4-(trifluoromethyl)phenyl)propanoyl)-L-tyrosine] (H-[His(Trt)]K(Octanoyl)[dPhe(4-CF3)]Y-OH), the “ECmax (-fold induction over basal)” value at GPR39 [1] is 14.2 ± 3.75 -fold induction over basal. The compound further returned an EC50 at GPR39 [2] of 7 ± 1 nM.

As for `CCCCCCCC(=O)NCCCC[C@H](NC(=O)[C@H](Cc1c[nH]c2ccccc12)NC(=O)OC(C)(C)C)C(=O)N[C@H](Cc1ccc(C)cc1)C(=O)N[C@@H](Cc1ccc(O)cc1)C(=O)O` [HKFY-78, ((R)-2-((S)-2-((S)-2-((tert-butoxycarbonyl)amino)-3-(1H-indol-3-yl)propanamido)-6-octanamidohexanamido)-3-(p-tolyl)propanoyl)-L-tyrosine] (Boc-WK(Octanoyl)[dPhe(4-Me)]Y-OH), the “ECmax (-fold induction over basal)” value on GPR39 [1] is 11.4 ± 1.54 -fold induction over basal. Also, on GPR39 [2], the EC50 came to 9 ± 1 nM.
